Converted amounts (≈) assume the structure as drawn.
Key:
L929 and VERO cell lines = test: MTT cytotoxicity assay; assay type: cell-based, mouse; African green monkey; conditions: 24 h, higher concentrations not reached due to limited solubility
[1] = test system: Candida krusei ATCC 14243; test: Broth microdilution MIC/MFC, reference strain; assay type: cell-based; conditions: Pichia kudriavzevii, ATCC14243, C. krusei ATCC 14243
Source text: (§1) The examined compounds 3a–3j were screened in vitro for antibacterial and antifungal activities using the broth microdilution method according to European Committee on Antimicrobial Susceptibility Testing (EUCAST) (EUCAST [2003]) and Clinical and Laboratory Standards Institute guidelines (CLSI [2012]) against reference strains of microorganisms from American Type Culture Collection (ATCC), including fungi belonging to yeasts (Candida albicans ATCC 2091, Candida albicans ATCC 10231, Candida parapsilosis ATCC 22019 and Candida krusei ATCC 14243).
(§2) In the study of antifungal activity of the compounds 3a–3j, 15 clinical strains of different species of yeasts from Candida species, namely C. albicans, C. dubliniensis C. famata, C. inconspicua, C. krusei, C. tropicalis, C. glabrata, C. lambica, C. kefyr, C. lusitaniae, C. parapsilosis, C. guilliermondii, C. lusitaniae, C. pulcherrima and C. sake were also used. These fungi were isolated by the author (from Department of Pharmaceutical Microbiology of Medical University in Lublin, Poland) from different clinical materials, e.g., from upper respiratory tract of hospitalized patients including cancer patients (i.e., with non-small cell lung cancer or hematological malignancies). Some patients were after pre-operative or post-operative chemotherapy (treated with etoposide or cis-platin given in doses according to the standard procedures), patients with chronic hepatitis C (undergoing peginterferon and ribavirin therapy or without antiviral therapy), patients with diabetes, elderly people, aged of 65 years old or older, staying in close population, such as a care centre and people staying outside the home care. The Ethical Committee of the Medical University of Lublin approved the study protocol (No. KE-0254/75/2011). The isolates were identified by standard diagnostic methods—biochemical microtest, e.g., API 20C AUX, ID 32C, API Candida (bioMérieux) on the basis of assimilation of various substrates. All the used microbial cultures were first subcultured on nutrient agar or Sabouraud agar for bacteria and fungi, respectively. The RPMI 1640 with MOPS (for fungi) were inoculated with the suspensions of fungal species. Microbial suspensions were prepared in sterile saline (0.85% NaCl) with an optical density of 0.5 McFarland standard scale (Wiegand et al. [2008]). Samples containing examined compounds were dissolved in dimethyl sulfoxide (DMSO). Furthermore, fungal suspensions were put onto Petri dishes with solid media containing 2 mg/ml of the tested compounds followed incubation under appropriate conditions. The inhibition of microbial growth was judged by comparison with a control culture prepared without any sample tested. Nystatin (Sigma) was used as a reference antifungal compound. Subsequently MIC minimal inhibitory concentration (MIC) of the compounds was examined by the microdilution broth method, using their two-fold dilutions in RPMI 1640 broth with MOPS prepared in 96-well polystyrene plates. Final concentrations of the compounds ranged from 1000 to 0.0038 µg/ml. Microbial suspensions were prepared in sterile saline with an optical density of 0.5 McFarland standard. Next fungal suspension was added per each well containing broth and various concentrations of the examined compounds. After incubation, the MIC was assessed spectrophotometric as the lowest concentration of the samples showing complete fungal growth inhibition. Appropriate DMSO, growth and sterile controls were carried out. The medium with no tested substances was used as a control (Wiegand et al. [2008]). The minimal fungicidal concentration (MFC) are defined as the lowest concentration of the compounds that is required to kill a particular fungal species. MFC was determined by removing the culture using for MIC determinations from each well and spotting onto appropriate agar medium. The plates were incubated. The lowest compounds concentration with no visible growth observed was assessed as a fungicidal concentration. […]

[2] = test system: Candida parapsilosis ATCC 22019; test: Broth microdilution MIC/MFC, reference strain; assay type: cell-based; conditions: Lodderomyces parapsilosis, ATCC22019, C. parapsilosis ATCC 22019
Source text: as §1, §2

[3] = test system: Candida albicans ATCC 10231; test: Broth microdilution MIC/MFC, reference strain; assay type: cell-based; conditions: Candida albicans, ATCC10231, C. albicans ATCC 10231
Source text: as §1, §2

[4] = test system: Candida albicans ATCC 2091; test: Broth microdilution MIC/MFC, reference strain; assay type: cell-based; conditions: Candida albicans, ATCC2091, C. albicans ATCC 2091
Source text: as §1, §2

[5] = test system: 6-Hz psychomotor seizures; test: 6-Hz test; assay type: in vivo, mouse; conditions: mice
Procedure: For in vivo tests that assessed anticonvulsant properties of the test compounds 3a-3j adult male Albino Swiss (CD-1) mice weighing between 18 and 22 g were used. The animals were housed in groups of ten mice per cage at room temperature of 22 ± 2 °C, under light/dark (12:12) cycle. The animals had free access to food and tap water before the experiments. The ambient temperature of the experimental room and humidity (50 ± 10%) were kept consistent throughout all the tests. For behavioral experiments the animals were selected randomly. Each experimental group consisted of 4-8 animals/dose. The experiments were performed between 9 AM and 2 PM. Immediately after the in vivo assay the animals were euthanized by cervical dislocation. All procedures were approved by the Local Ethics Committee of the Jagiellonian University in Krakow (34/2018, 1.02.2018)) and the treatment of animals was in full accordance with ethical standards laid down in respective Polish and EU regulations (Directive No. 86/609/EEC). For in vivo tests the compounds 3a-3j were prepared in 1% Tween 80 solution (POCH, Poland) and they were administered by the intraperitoneal route. Control mice received 1% Tween 80. Pentylenetetrazole (PTZ), pilocarpine hydrochloride and scopolamine butylbromide were provided by Sigma Aldrich (Poland). For the tests they were prepared in 0.9% saline (Polfa Kutno, Poland). PTZ and pilocarpine were administered 60 min after the test compound or vehicle. To assess anticonvulsant properties of the test compounds anticonvulsant screening was conducted. Four assays were used: PTZ, maximal electroshock seizure (MES), 6-Hz and pilocarpine tests. In these assays the dose of 100 mg/kg was chosen as a starting dose. If it turned out to be effective, a lower dose (30 mg/kg) was also tested. This test was performed according to (Barton et al. [2001]). It is an alternative electroshock paradigm that involves low-frequency (6 Hz), long-duration (3 s) electrical stimulation. Corneal stimulation (0.2 ms-duration monopolar rectangular pulses at 6 Hz for 3 s) was delivered by a constant-current device. During electrical stimulation mice were manually restrained and released into the observation cage immediately after current application. At the time of drug administration a drop of 0.5% tetracaine ([…] sterile solution, […] Pharmaceuticals Inc., USA) was applied into the eyes of all animals. Prior to the placement of corneal electrodes, a drop of 0.9% saline was applied on the eyes. In this model seizures manifest in 'stunned' posture associated with rearing, forelimb automatic movements and clonus, twitching of the vibrissae and Straub-tail. At the end of the seizure episode the animals resume their normal exploratory behavior. In this test protection against a seizure episode is considered as the end point and animals are considered to be protected if they resume their normal exploratory behavior within 10 s after electrical stimulation.

SMILES: [N-]=[N+]=Nc1ccc(-c2csc(N/N=C/C3CC3)n2)cc1 [Compound 3i, (E)-4-(4-Azidophenyl)-2-(2-(cyclopropylmethylene)hydrazinyl)thiazole]
- highest possible non-cytotoxic concentration (L929 and VERO cell lines): 15.63 µg/mL
- MFC ([1]; read-out: MFC): 1.95 µg/mL (≈ 6.86 µM)
- MIC ([1]; read-out: MIC): 0.48 µg/mL (≈ 1.69 µM)
- MFC ([2]; read-out: MFC): 7.81 µg/mL (≈ 27.5 µM)
- MIC ([2]; read-out: MIC): 0.98 µg/mL (≈ 3.45 µM)
- MFC ([3]; read-out: MFC): 1.95 µg/mL (≈ 6.86 µM)
- MIC ([3]; read-out: MIC): 0.24 µg/mL (≈ 0.844 µM)
- MFC ([4]; read-out: MFC): 3.91 µg/mL (≈ 13.8 µM)
- MIC ([4]; read-out: MIC): 0.98 µg/mL (≈ 3.45 µM)
- responders at 30 mg/kg ([5]; Mus musculus, 30 mg/kg ip, read-out: X/Y number of mice protected (X) per number of mice tested (Y) (converted)): 25%
- responders at 100 mg/kg ([5]; Mus musculus, 100 mg/kg ip, read-out: X/Y number of mice protected (X) per number of mice tested (Y) (converted)): 75%
- animals protected from seizures ([5]; 100 mg/kg): 75%

Source: PMC6133161, “Thiazoles with cyclopropyl fragment as antifungal, anticonvulsant, and anti-Toxoplasma gondii agents: synthesis, toxicity evaluation, and molecular docking study” (Medicinal Chemistry Research, 2018)
